According to patent publication US20210338761A1, “COMPOSITION FOR PREVENTING, AMELIORATING, OR TREATING SLEEP DISTURBANCE COMPRISING EXTRACT OF FRAXINUS SP. PLANT AS EFFECTIVE COMPONENT” (KOREA INSTITUTE OF ORIENTAL MEDICINE, priority 2018, published 2021):

What was measured:
Format in all cases: in vivo, C57BL/6 mouse
Conditions in all cases: 15 mg/kg orally for 14 days, foot pad electric shock and restraint stress, cerebral cortex obtained on Day 17
[1] = test system: GAD65 (glutamic acid decarboxylase 65) mRNA; assay: mRNA expression level of GAD65 in cerebral cortex, stress-induced sleep disturbance model (real-time PCR)
Procedure: (§1) 100 mg/kg extract of Fraxinus rhynchophylla and 15 mg/kg doxepin (Sigma-Aldrich, St. Louis, Mo., USA) were dissolved respectively in PBS to the designated concentration. After aliquoting them according to the required administration amount, it was orally administered in an amount of 0.1 ml for each, one hour before applying stress. To the normal and stress control, PBS was orally administered in an amount of 0.1 ml for each.
(§2) Seven-week old male C57BL/6 mouse with bodyweight of 20 to 22 g was obtained from DBL Co., Ltd. (Eumseong-Gun, Chungcheong-Bukdo, Korea). […]
(§3) Expression pattern of the gene in cerebral cortex, which has been removed from each test animal upon the completion of the test, was determined by real-time PCR. The cerebral cortex tissues of a mouse were treated with RNAzolB (Tel-Test) to extract RNA, and then analyzed by cDNA and real-time PCR instrument using One-step SYBR Green PCR kit (AB science). […] Real time quantitative PCR was carried out by using Applied Biosystems 7500 Real-Time PCR system (Applied Biosystems, USA).
(§4) Thereafter, foot pad electric shock and restrain were applied to the mouse and then cerebral cortex was collected by autopsy of the mouse to obtain RNA. cDNA was then prepared and mRNA expression level of GAD65 and GAD67 was analyzed by using real-time gene analyzer.

[2] = test system: GAD67 (glutamic acid decarboxylase 67) mRNA; assay: mRNA expression level of GAD67 in cerebral cortex, stress-induced sleep disturbance model (real-time PCR)
Procedure: as §1, §2, §3, §4

neuropeptide Y mRNA = assay: mRNA expression level of neuropeptide Y in cerebral cortex, stress-induced sleep disturbance model (real-time PCR)
Procedure: as §1, §2, §3
Thereafter, foot pad electric shock and restrain were applied to the mouse and then cerebral cortex was collected by autopsy of the mouse to obtain RNA. cDNA was then prepared and mRNA expression of neuropeptide Y was analyzed by using real-time gene analyzer.

Structure (SMILES): CN(C)CCC=C1c2ccccc2COc2ccccc21 [doxepin]
- mRNA expression level of GAD65 in cerebral cortex compared to the control [1]: tend to show higher expression
- mRNA expression level of GAD67 in cerebral cortex compared to the control [2]: tend to show higher expression
- mRNA expression level of neuropeptide Y in cerebral cortex compared to the control (neuropeptide Y mRNA): increased in statistically significant sense
- mRNA expression level of neuropeptide Y in cerebral cortex compared to the control (neuropeptide Y mRNA; listed as positive control): higher expression in significant sense
